Tested on: yeast tRNA^Phe (RNA, tRNA) GCGGAUUUAGCUCAGUUGGGAGAGCGCCAGACUGAAGAUCUGGAGGUCCUGUGUUCGAUCCACAGAAUUCGCACCA
Experiment: inhibition of lead(II)-induced cleavage, gel
Conditions: 10 mM Mg2+, 1 mM NH4+, 0.5 mM Pb2+; 50% inhibition of Pb2+ cleavage; 50 mM Tris-HCl pH 7.5; RNA 2.4 μM

Compound	Ki [µM]
CN(C)c1ccc2cc3ccc(N(C)C)cc3[o+]c2c1	166 ± 42
CN(C)c1ccc2nc3ccc(N(C)C)cc3[s+]c2c1	98 ± 20
CN(C)c1ccc2nc3ccc(N)cc3[s+]c2c1	52 ± 8.3
CNc1ccc2nc3ccc(=[N+](C)C)cc-3sc2c1	58 ± 28

Reference: paper PMC5039424 (2016)
